Measurements reported in patent US20230150951A1, “2,5- OR 2,6-DISUBSTITUTED HYDROQUINONE DERIVATIVES WITH AT LEAST ONE CARBOXY, SULFO OR AMIDO GROUP USEFUL AS MEDICAMENTS” (OM PHARMA SA, priority 2020, published 2023).
Like-named read-outs stand apart in the source and are kept apart here.

Columns and labels:
Assay type in all cases: cell-based
VEGFR-2 = molecular target: T1, VEGFR-2 (Homo sapiens, UniProt P35968); assay: VEGF-165 induced phosphorylation of VEGF-Receptor on HUVEC; conditions: HUVEC preincubated 60 min, VEGF165 25 ng/mL 2 min; read-out: VEGFR-Phosphorylation inhibition IC50
T1 construct: endogenous in cells; host or cells: primary HUVEC
T1 sequence (P35968 20-1356): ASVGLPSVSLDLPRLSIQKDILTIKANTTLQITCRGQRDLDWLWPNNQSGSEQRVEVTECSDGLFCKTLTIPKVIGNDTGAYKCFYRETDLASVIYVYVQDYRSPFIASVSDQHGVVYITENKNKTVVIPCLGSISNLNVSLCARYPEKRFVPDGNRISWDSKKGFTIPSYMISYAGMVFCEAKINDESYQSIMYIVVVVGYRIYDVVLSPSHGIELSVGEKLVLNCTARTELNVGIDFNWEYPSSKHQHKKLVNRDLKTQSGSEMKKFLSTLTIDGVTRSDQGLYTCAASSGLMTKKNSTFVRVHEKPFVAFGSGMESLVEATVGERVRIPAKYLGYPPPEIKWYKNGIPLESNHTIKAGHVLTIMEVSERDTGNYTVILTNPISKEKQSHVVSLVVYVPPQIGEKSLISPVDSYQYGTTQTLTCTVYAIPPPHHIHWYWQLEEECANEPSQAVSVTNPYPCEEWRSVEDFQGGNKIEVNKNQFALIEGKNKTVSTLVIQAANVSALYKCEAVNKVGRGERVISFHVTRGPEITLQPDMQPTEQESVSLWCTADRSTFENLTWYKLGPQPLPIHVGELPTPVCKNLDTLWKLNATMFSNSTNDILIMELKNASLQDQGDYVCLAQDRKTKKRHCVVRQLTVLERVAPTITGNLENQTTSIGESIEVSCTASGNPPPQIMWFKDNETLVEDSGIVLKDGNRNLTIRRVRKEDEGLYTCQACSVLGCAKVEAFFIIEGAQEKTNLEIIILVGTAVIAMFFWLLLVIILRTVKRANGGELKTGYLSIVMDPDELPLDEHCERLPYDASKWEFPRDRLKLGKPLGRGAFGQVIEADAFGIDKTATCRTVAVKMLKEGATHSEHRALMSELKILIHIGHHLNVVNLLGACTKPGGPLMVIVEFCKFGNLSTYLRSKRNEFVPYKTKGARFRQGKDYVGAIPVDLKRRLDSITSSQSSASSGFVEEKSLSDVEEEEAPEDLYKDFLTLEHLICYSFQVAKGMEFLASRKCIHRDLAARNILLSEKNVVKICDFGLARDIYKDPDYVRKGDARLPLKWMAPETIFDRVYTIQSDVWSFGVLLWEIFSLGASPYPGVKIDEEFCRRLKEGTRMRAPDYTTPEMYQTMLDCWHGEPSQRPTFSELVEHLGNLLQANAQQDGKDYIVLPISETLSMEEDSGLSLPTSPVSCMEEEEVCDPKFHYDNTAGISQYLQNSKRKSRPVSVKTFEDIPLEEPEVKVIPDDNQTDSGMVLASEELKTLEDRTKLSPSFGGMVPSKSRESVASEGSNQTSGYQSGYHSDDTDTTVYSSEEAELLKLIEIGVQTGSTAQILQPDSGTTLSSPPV

IL-2 = assay: Cytokine release after LPS induction on human whole blood: IL-2
Protocol: (§1) Aim of this in vitro method is to assess compounds effects on release of a panel of cytokines from whole blood following lipopolysaccharide (LPS) induced inflammatory reaction. Whole blood was incubated with compounds for 1 h prior to LPS induction. Cytokine levels in blood were measured using a multiplex FACS-based panel.
(§2) IC50 values determined for the tested compounds expressed in microM [μM] and the values for the inhibition of cytokines were listed for each compound.
(§3) Effect on cytokines release after LPS induction was performed on the compounds dissolved in DMSO or H2O to reach 10-fold concentrated stock solutions and dissolved in culture media.
(§4) Test system: Whole blood was removed from a single donor (into lithium heparin coated tubes; BD Vacutainer; 367886) and diluted 1:5 with RPMI 1640 (Thermo Fisher, 61870036). Within 30 minutes of sampling, blood was incubated with compounds for 1 h prior to LPS stimulation (O111:B4—Sigma L4391; 10 ng/ml final concentration). Stimulation continued under standard cell culture conditions (37° C. with 5% CO2) overnight (18 h), after which plates were centrifuged and supernatant removed and frozen at −80° C. until used for analyses.
(§5) Dilution of test compounds: 10×concentrated solutions (concerning to the final assay concentrations) of each test compound were prepared with the appropriate solvent (in DMSO or in water). These 10× compound solutions (10 μl) were then added to 90 μl pre-diluted whole blood (whole blood: RPMI1640, 1:5) resulting in the final assay concentration.
(§6) Test method: Diluted whole blood (80 μl) was pre-incubated with compounds (10 μl) to give final assay concentrations of 100, 30, 10, 3, 1, 0.3 and 0.1×10^−6M. Blood was incubated at 37° C. with 5% CO2 for 1 h. LPS was diluted in cell culture media to a concentration of […]; 10 μl was added to the whole blood to give a final concentration of 10 ng/ml. Plates were incubated at 37° C. for 18 h. Plates were centrifuged at 3,000 RPM for 5 minutes at 4° C. and supernatant removed and frozen at −80° C. until FACS analysis was carried out.
(§7) Cytokine release was measured using a custom multiplex system (ELISA Genie) according to manufacturers instructions. Prepared samples were run on an Attune NxT flow cytometer (Thermo Fisher).
(§8) Quantification of cytokine release inhibition: known concentration standards were run as part of the cytokine panel to allow quantification of each cytokine concentration in each sample. This was carried out using FCAP Array v3.0 software.
(§9) Results: The dose response relationship on cytokine release following LPS induction of inflammatory response in whole blood was assessed for all compounds. IC50 values were determined for each compound for a panel of cytokines (GM-CSF, IFN-gamma, IL-1beta, IL-2, IL-4, IL-5, IL-6, IL-8, IL-9, IL-10, IL-12p40, IL-13, IL-17A, IL-17F, IL-18, IL-21, IL-22, IL-33, TGF-beta, TNF-alpha, TNF-beta).

IL-4 = assay: Cytokine release after LPS induction on human whole blood: IL-4
Protocol: as §1, §2, §3, §4, §5, §6, §7, §8, §9

IL-13 = assay: Cytokine release after LPS induction on human whole blood: IL-13
Protocol: as §1, §2, §3, §4, §5, §6, §7, §8, §9

IL-17F = assay: Cytokine release after LPS induction on human whole blood: IL-17F
Protocol: as §1, §2, §3, §4, §5, §6, §7, §8, §9

IL-18 = assay: Cytokine release after LPS induction on human whole blood: IL-18
Protocol: as §1, §2, §3, §4, §5, §6, §7, §8, §9

TNF-beta = assay: Cytokine release after LPS induction on human whole blood: TNFβ
Protocol: as §1, §2, §3, §4, §5, §6, §7, §8, §9

[1] = Homo sapiens, LPS 10 ng/ml, 18 h, read-out: Whole Blood: IL-2 IC50
[2] = human whole blood, inhibition of LPS induced inflammation, read-out: IC50 IL-2
[3] = Homo sapiens, LPS 10 ng/ml, 18 h, read-out: Whole Blood: IL-4 IC50
[4] = human whole blood, inhibition of LPS induced inflammation, read-out: IC50 IL-4
[5] = Homo sapiens, LPS 10 ng/ml, 18 h, read-out: Whole Blood: IL-13 IC50
[6] = human whole blood, inhibition of LPS induced inflammation, read-out: IC50 IL-13
[7] = Homo sapiens, LPS 10 ng/ml, 18 h, read-out: Whole Blood: IL-17F IC50
[8] = human whole blood, inhibition of LPS induced inflammation, read-out: IC50 IL-17F
[9] = Homo sapiens, LPS 10 ng/ml, 18 h, read-out: Whole Blood: IL-18 IC50
[10] = human whole blood, inhibition of LPS induced inflammation, read-out: IC50 IL-18
[11] = Homo sapiens, LPS 10 ng/ml, 18 h, read-out: Whole Blood: TNF β IC50
[12] = human whole blood, inhibition of LPS induced inflammation, read-out: IC50 β

Row | SMILES | IC50 (VEGFR-2) | IC50 (IL-2; [1]) | IC50 (IL-2; [2]) | IC50 (IL-4; [3]) | IC50 (IL-4; [4]) | IC50 (IL-13; [5]) | IC50 (IL-13; [6]) | IC50 (IL-17F; [7]) | IC50 (IL-17F; [8]) | IC50 (IL-18; [9]) | IC50 (IL-18; [10]) | IC50 (TNF-beta; [11]) | IC50 (TNF-beta; [12])
1 | O=C(O)c1cc(O)cc(CSCc2cc(O)cc(C(=O)O)c2O)c1O [IVc-058a, 3-((2,5-Dihydroxy-3-carboxyphenyl)methylthiomethyl)-2,5-dihydroxybenzoic acid] | 0.53 µM | 3.82 µM | 3.82 µM | > 100 µM | 100 µM | 55.9 µM | 55.9 µM | 86.8 µM | 86.8 µM | > 100 µM | 100 µM | 59.3 µM | 59.3 µM
2 | O=C(O)Cc1cc(O)c(C(=O)Nc2ccccc2-c2nnn[nH]2)cc1O [IIIa-001aTz] | 0.71 µM | > 100 µM | 100 µM | > 100 µM | 100 µM | 0.15 µM | 0.15 µM | 0.16 µM | 0.16 µM | 27.7 µM | 27.7 µM | 0.23 µM | 0.23 µM
3 | O=C(O)Cc1cc(O)c(C(=O)Nc2c(C(=O)O)cccc2C(=O)O)cc1O [IIIa-013a, 2-(4-(carboxymethyl)-2,5-dihydroxybenzamido)isophthalic acid] | 1.3 µM | 57.1 µM | 57.1 µM | > 100 µM | 100 µM | 0.37 µM | 0.37 µM | 0.41 µM | 0.41 µM | > 100 µM | 100 µM | 0.89 µM | 0.89 µM
4 | O=C(O)c1cc(NC(=O)c2cc(O)c(C(=O)Nc3ccc(O)c(C(=O)O)c3)cc2O)ccc1O [Ic-007a, 5-(4-(3-carboxy-4-hydroxyphenylaminocarbonyl)-2,5-dihydroxybenzamido)-2-hydroxy benzoic acid] | 0.09 µM | > 100 µM | 100 µM | > 100 µM | 100 µM | 30.1 µM | 30.1 µM | 22.9 µM | 22.9 µM | > 100 µM | 100 µM | 6.52 µM | 6.52 µM

Second part, the compound after the results:

Row | IC50 (VEGFR-2) | IC50 (IL-2; [1]) | IC50 (IL-2; [2]) | IC50 (IL-4; [3]) | IC50 (IL-4; [4]) | IC50 (IL-13; [5]) | IC50 (IL-13; [6]) | IC50 (IL-17F; [7]) | IC50 (IL-17F; [8]) | IC50 (IL-18; [9]) | IC50 (IL-18; [10]) | IC50 (TNF-beta; [11]) | IC50 (TNF-beta; [12]) | SMILES
5 | 6.4 µM | 43 µM | 43 µM | > 100 µM | 100 µM | 89.6 µM | 89.6 µM | 83.9 µM | 83.9 µM | > 100 µM | 100 µM | 55 µM | 55 µM | O=C(O)c1cc(O)c(C(=O)Nc2ccc(-c3nnn[nH]3)cc2)cc1O [Ia-003a-Tz, 4-(4-(1H-tetrazol-5-yl)phenyl-aminocarbonyl)-2,5-dihydroxybenzoic acid]
6 | 2.2 µM | 9.45 µM |  | > 100 µM |  | 0.12 µM |  | 0.15 µM |  | 33.9 µM |  | 0.41 µM |  | O=C(Nc1ccccc1-c1nnn[nH]1)c1cc(O)c(C(=O)Nc2ccccc2-c2nnn[nH]2)cc1O [Ic-001aTz2, N1,N4-bis(2-(1H-tetrazol-5-yl)phenyl)-2,5-dihydroxyterephthalamide]
7 | 0.23 µM | 7.99 µM | 7.99 µM | > 100 µM | 100 µM | 32.1 µM | 32.1 µM | 46.5 µM | 46.5 µM | > 100 µM | 100 µM | 53 µM | 53 µM | O=C(O)c1cc(O)c(C(=O)Nc2ccccc2-c2nnn[nH]2)cc1O [Ia-001a-Tz, 4-(2-(1H-tetrazol-5-yl)phenyl-aminocarbonyl)-2,5-dihydroxybenzoic acid]
8 |  | 10.4 µM | 10.4 µM | > 100 µM | 100 µM | 18.7 µM | 18.7 µM | 25.8 µM | 25.8 µM | > 100 µM | 100 µM | 19.4 µM | 19.4 µM | COC(=O)c1cc(OC(C)=O)cc(CS(=O)(=O)Cc2cc(OC(C)=O)cc(C(=O)OC)c2OC(C)=O)c1OC(C)=O [IVc-059a-E2-A4]
9 | 1.6 µM | 2.74 µM | 2.74 µM | > 100 µM | 100 µM | > 100 µM | 100 µM | > 100 µM | 100 µM | > 100 µM | 100 µM | 49.3 µM | 49.3 µM | O=C(O)c1cc(NC(=O)c2cc(O)c(C(=O)O)cc2O)cc(NC(=O)c2cc(O)c(C(=O)O)cc2O)c1 [Ib-010a, 3,5-bis(2,5-dihydroxy-4-carboxybenzoylamino)benzoic acid]
10 | 4.8 µM | 21.2 µM | 21.2 µM | > 100 µM | 100 µM | > 100 µM | 100 µM | > 100 µM | 100 µM | > 100 µM | 100 µM | 0.33 µM | 0.33 µM | O=C(O)c1cc(O)cc(CS(=O)(=O)Cc2cc(O)cc(C(=O)O)c2O)c1O [IVc-059a, 3-((2,5-Dihydroxy-3-carboxyphenyl)methylsulfonylmethyl)-2,5-dihydroxybenzoic acid]
